Results: patent EP0556789A2, “Substituted biphenyl derivatives, therapeutic agents containing them and process for their preparation” (Dr. Karl Thomae GmbH, priority 1992, dated 1993)

Target: T1, Angiotensin II-Rezeptor (Rattus norvegicus, UniProt P25095)
T1 construct: Das Gewebe (Rattenlunge) wird in Tris-Puffer; from tissue; host or cells: rat lung (membrane pellet of the homogenate)
T1 sequence (P25095 1-359): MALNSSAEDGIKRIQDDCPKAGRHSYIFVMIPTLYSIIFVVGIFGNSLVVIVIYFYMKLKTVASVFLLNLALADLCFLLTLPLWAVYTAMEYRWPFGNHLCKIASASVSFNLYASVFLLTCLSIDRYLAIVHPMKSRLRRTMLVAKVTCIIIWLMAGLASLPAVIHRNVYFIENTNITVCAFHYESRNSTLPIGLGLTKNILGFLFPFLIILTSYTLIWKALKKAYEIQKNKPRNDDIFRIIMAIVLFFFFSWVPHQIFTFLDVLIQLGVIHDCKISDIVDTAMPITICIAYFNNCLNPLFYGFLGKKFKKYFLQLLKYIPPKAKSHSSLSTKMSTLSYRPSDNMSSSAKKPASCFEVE
Assay: Angiotensin II receptor binding ([125I]-angiotensin II displacement, rat lung homogenate)
Design: species or system Ratte
Details: Rattenlunge homogenate, 50 pM [125I]-Angiotensin II, 60 min at 37 °C
Description: Methodenbeschreibung Angiotensin II-Rezeptorbindung
Das Gewebe (Rattenlunge) wird in Tris-Puffer (50 mMol Tris, 150 mMol NaCI, 5 mMol EDTA, pH 7.40) homogenisiert und zweimal je 20 Min. bei 20.000 x g zentrifugiert. Das endgültige Pellet wird in Inkubations-Puffer (50 mMol Tris, 5 mMol MgCI2, 0,2 % BSA, pH 7.40) 1:75, bezogen auf das Feuchtgewicht des Gewebes, resuspendiert. Je 0,1 ml Homogenat wird für 60 Min. bei 37 ° C mit 50 pM [125']-Angiotensin II (NEN, Dreieich, FRG) und steigenden Konzentrationen der Testsubstanz in einem Gesamtvolumen von 0,25 ml inkubiert. Die Inkubation wird durch rasche Filtration durch Glasfiber-Filtermatten beendet. Die Filter werden je 4 ml eiskaltem Puffer (25 mMol Tris, 2.5 mMol MgCI2, 0,1 % BSA, pH 7,40) gewaschen. Die gebundene Radioaktivität wird in einem Gamma-Counter ermittelt. Aus der Dosis-Wirkungskurve wird der entsprechende 1C50-Wert ermittelt.

In the case of `CCCc1nc2c(C)cccc2n1Cc1ccc(-c2ccccc2)c(CCC(=O)O)c1` [Substanz B, 2-n-Propyl-4-methyl-1-[3-(2-hydroxycarbonyl-ethyl)-4-phenyl-benzyl]-benzimidazol], the IC50 is reported as 270 nM.

Work on `CCCc1nc2c(C)cc(-c3nc4ccccc4n3C)cc2n1Cc1ccc(-c2ccccc2)c(CCC(=O)O)c1` [Substanz C, 2-n-Propyl-4-methyl-6-(1-methyl-benzimidazol-2-yl)-1-[3-(2-hydroxycarbonyl-ethyl)-4-phenyl-benzyl]-benzimidazol] yielded an IC50 of 18 nM.

Molecule `CCCc1nc2c(C)cccc2n1Cc1ccc(-c2ccccc2)c(Cc2nnn[nH]2)c1` [Substanz A, 2-n-Propyl-4-methyl-1-[3-(tetrazol-5-yl-methyl)-4-phenyl-benzyl]-benzimidazol] has an IC50 of 370 nM.

For `CCCc1nc2c(C)cc(-c3cn(C(C)C)cn3)cc2n1Cc1ccc(-c2ccccc2)c(CCc2nnn[nH]2)c1` [Substanz E, 2-n-Propyl-4-methyl-6-(1-isopropyl-imidazol-4-yl)-1-[3-(2-tetrazol-5-yl-ethyl)-4-phenyl-benzyl]-benzimidazol], the IC50 was 6.9 nM.

`CCc1nc2c(C)cc(C)nc2n1Cc1ccc(-c2ccccc2)c(Cc2nnn[nH]2)c1` [Substanz D, 2-Ethyl-5,7-dimethyl-3-[3-(tetrazol-5-yl-methyl)-4-phenyl-benzyl]-imidazo[4,5-b]pyridin] gave an IC50 of 73 nM.
